Data published in patent US20160243254A1, “Theranostic Nanoprobes for Overcoming Cancer Multidrug Resistance and Methods” (Massachusetts Institute of Technology, priority 2015, published 2016).

Assays:
[1] = test system: resistant MDA-MB-231 cells; experiment: MTT cell viability assay; type: cell-based; details: 5-FU resistant MDA-MB-231 cells compared to parental cells
Procedure: Briefly, a standard MTT [3-(4,5-dimethylthiazol-2-yl)-2,5-diphenyltetrazoliumbromide] reduction assay was performed to determine the resistance status of the cells and the cytotoxicity of the gold nanobeacons.
Cells were seeded at a density of 1×10^5 cells per well in 24-well culture plates in complete DMEM (500 μL) with serum. After 24 hours of exposure, the medium was removed and the cells were washed twice with sterile PBS and 300 μL of fresh medium with serum was added. Then 16.7 μL of sterile MTT stock solution (5 mg/mL in PBS) was added to each well.
After incubation for an additional 2 hours, the medium was removed and the formazan crystals were resuspended in 300 μL of dimethyl sulfoxide (Sigma-Aldrich, USA). The solution was mixed and its absorbance was measured at 540 nm as a working wavelength and 630 nm as reference using a microplate reader (Varioskan Flash Multimode Reader, Thermo Scientific, MA, USA). The cell viability was normalized to that of cells cultured in the culture medium with PBS treatment.
In order to corroborate confocal and flow cytometry data and overcome 5-FU resistance, resistant MDA-MB-231 cells were incubated with increasing amounts of dark-gold nanobeacons with and without 5-FU, and evaluated by the imaging system IVIS®.

[2] = test system: resistant MDA-MB-231 mammary fat pad tumors; experiment: Tumor growth in orthotopic triple-negative breast cancer mice model after hydrogel implantation; type: in vivo, SCID mice; details: day 14 post treatment
Source text: In order to evaluate the efficiency of the dark-gold nanobeacon probes in sensing and in overcoming MDR in vivo, an orthotopic breast cancer mice model was developed by injecting resistant MDA-MD-231 cells to the mammary fat pad of female SCID hairless congenic mice. Efficacious and local delivery of the dark-gold nanobeacon probes was achieved by the implantation of a hydrogel disk on top of the triple-negative breast tumors. The hydrogel scaffold comprising polyamidoamine (PAMAM G5) dendrimer cross-linked with dextran aldehyde provided enhanced stability of the embedded nanoparticles.
Tumors in the mammary fat pad were induced in female SCID hairless congenic mice by injection of 5×10^6 resistant MDA-MB-231 cells stably expressing firefly luciferase, suspended in 50 μL of HBBS (Lonza, GA, USA) solution. For determination of tumor growth, individual tumors were measured using caliper, and tumor volume was calculated by Tumor volume (mm^3)=width×(length^2)/2. Treatments began when tumor volume reached about 100 mm^3. […]
In vivo imaging was used to track simultaneously tumor inhibition as measured by luciferase expression, nanobeacon probes before and after hybridization to the target and hydrogel stability monitored by fluorescence emission over a period of 14 days following hydrogel implantation.

## O=c1[nH]cc(F)c(=O)[nH]1 [5-FU, 5-fluorouracil]
[1]
  cell death after continuous exposure to drug: absence of cell death
[2]
  effect on tumor (in words): no effect
